This passage reports EC50 results from PubChem BioAssay AID651870 (NMMLSC, 2012).

A word on the pEC50: it is −log10 of the EC50, conventionally taken in molar units.

pEC50: −log10 of the molar value.

This test deals with AM2.2-beta2AR cells viability, CellTiter-Glo luminescence, 18 h. The test is described as follows: cell toxicity in β2-adrenergic receptor AM2.2 line, concentration-response, toxicity counterscreen for β2-adrenergic receptor internalization ligand project, cell-based, CellTiter-Glo luminescent readout, Powder Set 4 (AID 651870). Background: The purpose of a counterscreen is to sort out artefacts and off-target activity.
As for `CCCCC(=O)Nc1ccc(S(=O)(=O)N2CCCCC2c2cccnc2)cc1` (stereo not drawn), the pEC50 was 5.06.

For the molecule `Cc1ccc(S(=O)(=O)N2CCCCC2C(=O)N2CCN(c3ccc(C(F)(F)F)cn3)CC2)cc1` (stereo not drawn), the negative-log EC50 (pEC50) was 4.89.

Take `CN(CC(=O)N1CCN(c2cccc(C(F)(F)F)c2)CC1)S(=O)(=O)c1ccc(F)cc1`: the negative-log EC50 (pEC50) was 4.50.
